Read-outs that look alike come from different tables or passages of the source.
Experiments:
[1] = test system: isolated rat right atria; assay: ATX-II-induced arrhythmias in spontaneously beating isolated rat right atria (arrhythmia score); conditions: for IC50: isolated rat right atria, read-out: IC50, prevention of ATX-II induced arrhythmias and diastolic dysfunction
Method: (§1) Rats were anesthetized by intraperitoneal injection of 60 mg/kg ketamine and 8 mg/kg xylazine. The heart was rapidly removed and immersed in oxygenated Krebs-Henseleit buffer (in mmol/L: 118 NaCl, 4.8 KCl, 1.2 KH2PO4, 2.5 CaCl2, 1.2, MgSO4, 2 pyruvic acid, 5.5 glucose, 0.5 Na2EDTA, and 25 NaHCO3, pH 7.4). Rat right atria were quickly excised and suspended in a chamber of the Danish Myo Technologies (DMT) myograph containing 8 ml of oxygenated Krebs-Henseleit buffer. Mechanical and electrical changes were measured simultaneously in spontaneously beating atria. Isometric tension was recorded by a force transducer connected to a PowerLab data acquisition system (AD Instruments, Colorado Springs, Colo.). A bipolar electrode was attached to the surface of the atrium to record an electrogram. After stabilization, the atria were preincubated with a late INa inhibitor (0.1 μmol/L GS967 or 3 μmol/L ranolazine), a CaMKII inhibitor ((0.3 μmol/L AIP or 0.3 μmol/L KN-93) or their combination for 30 min, then treated with 50 nmol/L ATX-II to induce arrhythmias and diastolic dysfunction.
(§2) Isolated right atria beat spontaneously at a rate of 298+12 bpm. ATX-II induced premature beats, tachyarrhythmia and fibrillation in rat isolated right atria. Arrhythmias were recorded for 30 min following ATX-II treatment, and quantified using an arbitrary numerical grading of perceived severity as described previously (32) and shown in Table 1.

[2] = test system: isolated rat right atria; assay: ATX-II-induced increase of diastolic tension in isolated rat right atria; conditions: 3 μM RAN, 0.1 μM GS-967, 0.3 μM KN-93, 0.3 μM AIP, alone or combined, 50 nmol/L ATX-II
Method: as §1

[3] = test system: isolated rat right atria; assay: ATX-II-induced AF in isolated rat right atria; conditions: 3 μmol/L ranolazine, 100 nmol/L GS967, 300 nmol/L KN-93, 300 nmol/L AIP, alone or combined; FIG. 1
Method: as §1, §2

[4] = test system: isolated rat atrial myocytes; assay: ATX-II-induced diastolic Ca2+ increase in isolated rat atrial myocytes; type: cell-based; conditions: 100 nmol/L GS967, 300 nmol/L AIP, alone or combined; FIG. 3
Method: Adult male rats were anesthetized and hearts were rapidly removed and perfused in a retrograde mode (Langendorff preparation) with a modified Tyrode solution containing (in mmol/L): NaCl (135), KCl (4.6), MgCl2 (1.1), NaH2PO4 (1) glucose (10), HEPES (10), pH 7.4. Hearts were perfused for 5 min with a nominal Ca^2+-free Tyrode solution, then with a low Ca^2+ (2 µmol/L) solution containing 0.896 mg/ml collagenase type II (Worthington, USA) and 0.68 mg/ml bovine serum albumin (BSA) for 8-11 min at 37° C. […]
[Molecular Probes, USA], indo-1 AM [Molecular Probes] or 5 μmol/L Asante NaTRIUM Green 2 AM (Teflabs, USA) by incubation for 25 min at 23° C. in bath solution containing 1.0 mmol/L Ca^2+, and 2.5 μmol/L pluronic acid (Molecular Probes). Fluo-4 was excited at 488 nm, and the fluorescence was acquired at wavelengths >505 nm in the line scan mode or XY mode of the confocal system. Asante NaTRIUM Green 2 was excited at 543 nm, and fluorescence was acquired at wavelengths >560 nm in the XY scan mode. Intracellular calcium concentrations were monitored in electrically stimulated cells loaded with indo-1 AM using an IonOptix spectrophotometer (IonOptix, Milton, Mass.). […] Emitted fluorescence (405 nm and 485 nm) was detected by a photomultiplier tube. […] Fluorescent images were analyzed using ImageJ software (NIH) and Origin 8.1 (OriginLab, USA).

[5] = test system: late INa; conditions: cited from earlier work
[6] = test system: late INa; conditions: isolated hearts; read-out: IC50, ATX-II-induced late INa; cited from earlier work
[7] = biological target: peak INa (Homo sapiens, UniProt Q14524); conditions: cited from earlier work
Chain of peak INa (Q14524 whole entry): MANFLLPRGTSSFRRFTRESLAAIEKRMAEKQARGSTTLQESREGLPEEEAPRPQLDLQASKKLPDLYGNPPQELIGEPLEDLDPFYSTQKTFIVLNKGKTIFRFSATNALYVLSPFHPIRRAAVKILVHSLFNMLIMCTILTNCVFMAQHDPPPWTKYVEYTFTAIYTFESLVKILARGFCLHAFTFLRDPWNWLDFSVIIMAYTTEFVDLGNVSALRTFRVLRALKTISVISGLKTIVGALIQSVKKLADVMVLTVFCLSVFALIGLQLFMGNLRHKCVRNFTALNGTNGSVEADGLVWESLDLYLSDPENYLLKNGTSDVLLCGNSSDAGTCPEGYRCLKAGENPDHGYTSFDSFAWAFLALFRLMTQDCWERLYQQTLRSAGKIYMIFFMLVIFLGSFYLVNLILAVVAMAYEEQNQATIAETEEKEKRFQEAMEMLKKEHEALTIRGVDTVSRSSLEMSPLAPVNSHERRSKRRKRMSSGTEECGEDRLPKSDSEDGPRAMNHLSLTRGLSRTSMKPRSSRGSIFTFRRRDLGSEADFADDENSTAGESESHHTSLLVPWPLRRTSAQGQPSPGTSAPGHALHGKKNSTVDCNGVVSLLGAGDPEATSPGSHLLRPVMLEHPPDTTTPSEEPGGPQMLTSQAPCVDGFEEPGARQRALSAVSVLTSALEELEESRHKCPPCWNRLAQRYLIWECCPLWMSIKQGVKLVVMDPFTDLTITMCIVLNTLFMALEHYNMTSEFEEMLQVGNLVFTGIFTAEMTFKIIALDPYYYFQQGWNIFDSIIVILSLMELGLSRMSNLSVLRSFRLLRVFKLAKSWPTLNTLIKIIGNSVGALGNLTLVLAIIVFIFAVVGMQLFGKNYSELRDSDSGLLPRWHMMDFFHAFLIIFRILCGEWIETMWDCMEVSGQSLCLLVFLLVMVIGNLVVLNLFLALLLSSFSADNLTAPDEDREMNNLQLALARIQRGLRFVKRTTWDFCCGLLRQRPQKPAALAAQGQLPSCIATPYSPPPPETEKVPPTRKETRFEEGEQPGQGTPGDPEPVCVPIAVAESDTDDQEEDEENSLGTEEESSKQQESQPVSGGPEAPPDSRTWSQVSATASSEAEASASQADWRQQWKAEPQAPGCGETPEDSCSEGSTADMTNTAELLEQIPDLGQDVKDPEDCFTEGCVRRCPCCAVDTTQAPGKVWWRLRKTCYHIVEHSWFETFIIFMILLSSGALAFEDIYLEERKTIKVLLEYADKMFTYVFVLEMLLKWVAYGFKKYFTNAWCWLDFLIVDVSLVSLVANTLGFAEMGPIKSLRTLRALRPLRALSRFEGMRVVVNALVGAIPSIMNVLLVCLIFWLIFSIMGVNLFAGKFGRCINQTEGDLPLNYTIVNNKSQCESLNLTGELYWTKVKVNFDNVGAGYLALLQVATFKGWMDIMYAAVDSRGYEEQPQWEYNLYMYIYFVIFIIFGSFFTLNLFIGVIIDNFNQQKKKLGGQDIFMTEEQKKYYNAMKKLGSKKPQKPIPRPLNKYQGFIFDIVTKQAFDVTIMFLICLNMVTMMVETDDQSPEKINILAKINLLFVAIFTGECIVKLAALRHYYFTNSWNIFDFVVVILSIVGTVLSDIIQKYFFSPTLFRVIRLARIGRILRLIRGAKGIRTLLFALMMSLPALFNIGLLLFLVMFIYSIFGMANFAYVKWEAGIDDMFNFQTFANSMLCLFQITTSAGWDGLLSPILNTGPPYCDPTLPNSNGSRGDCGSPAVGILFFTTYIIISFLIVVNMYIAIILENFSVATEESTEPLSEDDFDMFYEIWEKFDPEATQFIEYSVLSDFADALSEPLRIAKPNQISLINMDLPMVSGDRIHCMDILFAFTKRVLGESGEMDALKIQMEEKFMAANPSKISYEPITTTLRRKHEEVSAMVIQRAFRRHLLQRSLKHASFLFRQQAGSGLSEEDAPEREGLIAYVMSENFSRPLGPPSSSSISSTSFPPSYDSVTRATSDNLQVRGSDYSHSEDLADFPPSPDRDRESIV

[8] = test system: isolated ventricular myocytes and hearts; conditions: cited from earlier work
[9] = 3 μM RAN, 0.1 μM GS-967, 0.3 μM KN-93, 0.3 μM AIP, alone or combined, 30 min preincubation, then 50 nmol/L ATX-II
[10] = Rattus norvegicus, 3 μM RAN, 0.1 μM GS-967, 0.3 μM KN-93, 0.3 μM AIP, alone or combined, 30 min preincubation, then 50 nmol/L ATX-II, read-out: measured % Inhibition of ATX-II-induced arrhythmias
[11] = Rattus norvegicus, read-out: Measured % Inhibition of ATX-II-induced increase of diastolic tension

COc1ccc(S(=O)(=O)N(CCO)c2ccccc2CN(C)C/C=C/c2ccc(Cl)cc2)cc1 [KN-93]
measured % Inhibition of ATX-II-induced arrhythmias [1, 9]: 24.1 ± 7.6%
inhibition at 0.3 µM [1, 10]: 23%
effect on ATX-II induced arrhythmias and diastolic dysfunction ([1]; rat right atria): prevented
inhibition at 0.3 µM [2, 11]: 8.4%
effect on ATX-II-induced AF [3]: failed to attenuate

COc1ccccc1OCC(O)CN1CCN(CC(=O)Nc2c(C)cccc2C)CC1 (racemic) [ranolazine, (±)—N-(2,6-dimethylphenyl)-4-[2-hydroxy-3-(2-methoxyphenoxy)-propyl]-1-piperazineacetamide]
measured % Inhibition of ATX-II-induced arrhythmias [1, 9]: 28%
measured % Inhibition of ATX-II-induced arrhythmias ([1]; 3 μM RAN, 0.1 μM GS-967, 0.3 μM KN-93, 0.3 μM AIP, alone or combined, 30 min preincubation, then 50 nmol/L ATX-II, listed as RAN): 23.8 ± 3.1%
IC50 [1]: 14800 nM
Measured % Inhibition of ATX-II-induced increase of diastolic tension [2]: 10.4%
Measured % Inhibition of ATX-II-induced increase of diastolic tension ([2]; listed as RAN): 5.5 ± 1.5%
effect on ATX-II-induced AF [3]: failed to attenuate

FC(F)(F)Oc1ccc(-c2ccc3nnc(C(F)(F)F)n3c2)cc1 [GS-967, 6-[4-(trifluoromethoxy)phenyl]-3-(trifluoromethyl)[1,2,4]triazolo[4,3-a]pyridine]
measured % Inhibition of ATX-II-induced arrhythmias [1, 9]: 34.2 ± 4.8%
inhibition at 0.1 µM [1, 10]: 34%
IC50 [1]: 1290 nM
inhibition at 0.1 µM [2, 11]: 9.1%
effect on ATX-II-induced AF [3]: failed to attenuate
inhibition of the ATX-II-induced increase of diastolic Ca2+ [4]: 13%
IC50 ([5]; ventricular myocytes, read-out: IC50, ATX-II-induced late INa): 130 nM
reduction of late INa and arrhythmias compared with flecainide or ranolazine ([5]; vs flecainide or ranolazine): more potent and effective
IC50 [6]: 210 nM
Reduction of peak INa ([7]; holding potential of −120 mV): minimal
Reduction of peak INa ([7]; holding potential −80 mV): increased
proarrhythmic effects (afterdepolarizations and torsades de pointes) of ATX-II and E-4031 [8]: prevented and reversed

Reference: patent publication US20140329755A1, “COMBINATION THERAPY FOR THE TREATMENT OF ARRHYTHMIAS OR HEART FAILURE” (Gilead Sciences, Inc., priority 2013, published 2014)
